Literature values in US20160311746A1, “METHOD OF PRODUCING ADIPIC ACID OR AT LEAST A RESULTANT PRODUCT THEREOF” (BASF SE, priority 2013, published 2016).

Conditions: at about 47° C.

solubility in water: about 1 g per 100 g of water
SMILES: O=C(O)/C=C\C=C/C(=O)O [cis,cis-muconic acid]
